Measurements from patent US6858739B2, “Indole and benzimidazole 15-lipoxygenase inhibitors” (Warner-Lambert Company, priority 2000, dated 2005).

What was measured:
human 15-LO = target: T1, human 15-LO (Homo sapiens, UniProt P16050); experiment: 15-LO inhibition, human enzyme; type: biochemical; details: linoleic acid as substrate
T1 sequence (P16050 1-662): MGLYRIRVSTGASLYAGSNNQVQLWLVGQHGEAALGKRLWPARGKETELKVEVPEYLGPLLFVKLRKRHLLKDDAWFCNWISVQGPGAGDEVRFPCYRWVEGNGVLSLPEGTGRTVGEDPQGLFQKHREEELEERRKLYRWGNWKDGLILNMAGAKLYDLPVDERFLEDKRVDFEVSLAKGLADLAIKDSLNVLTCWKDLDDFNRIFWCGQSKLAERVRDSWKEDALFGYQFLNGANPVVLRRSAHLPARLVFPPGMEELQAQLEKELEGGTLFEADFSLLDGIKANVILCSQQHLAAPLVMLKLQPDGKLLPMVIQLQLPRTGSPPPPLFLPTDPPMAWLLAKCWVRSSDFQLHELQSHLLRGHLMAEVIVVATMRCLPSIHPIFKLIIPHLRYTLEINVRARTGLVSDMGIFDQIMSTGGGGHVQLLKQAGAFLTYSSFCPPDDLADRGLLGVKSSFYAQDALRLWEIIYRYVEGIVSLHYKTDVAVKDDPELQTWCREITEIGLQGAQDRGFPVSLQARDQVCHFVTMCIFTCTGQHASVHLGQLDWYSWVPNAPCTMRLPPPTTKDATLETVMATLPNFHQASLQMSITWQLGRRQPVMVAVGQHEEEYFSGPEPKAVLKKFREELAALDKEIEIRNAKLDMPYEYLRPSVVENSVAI
Description: (§1) The compounds described above are effective inhibitors of 15-LO when evaluated in standard assays routinely utilized to measure 15-LO activity. Specifically, representative compounds were evaluated by the methods described by Auerbach et al., Analytical Biochemistry, 1992;201:375-380. Two in vitro assays were utilized, one utilizing rabbit reticulocyte 15-LO, the other using human 15-LO. Both used linoleic acid as substrate, to enzymatically produce a peroxide oxidation product known as 13(S)-HPODE. N-Benzoyl leucomethylene blue was utilized as a colorimetric reagent for detection and quantification of the peroxide formation. Also, HPLC was utilized to quantify the oxidation following incubation at 4° C. for 10 minutes.
(§2) Data Column 1 gives the concentration of compound required to inhibit 50% of the activity of 15-LO (IC50) when measured by the HPLC method of Auerbach et al. using rabbit enzymes, and data Column 2 gives data from human 15-LO enzyme.

[1] = target: T2, rabbit reticulocyte 15-LO (Oryctolagus cuniculus, UniProt P12530); experiment: 15-LO inhibition, rabbit reticulocyte enzyme (HPLC method of Auerbach et al.); type: biochemical; details: linoleic acid as substrate, incubation at 4° C. for 10 minutes
T2 construct: one utilizing rabbit reticulocyte 15-LO; from tissue; host or cells: rabbit reticulocytes
T2 sequence (P12530 1-663): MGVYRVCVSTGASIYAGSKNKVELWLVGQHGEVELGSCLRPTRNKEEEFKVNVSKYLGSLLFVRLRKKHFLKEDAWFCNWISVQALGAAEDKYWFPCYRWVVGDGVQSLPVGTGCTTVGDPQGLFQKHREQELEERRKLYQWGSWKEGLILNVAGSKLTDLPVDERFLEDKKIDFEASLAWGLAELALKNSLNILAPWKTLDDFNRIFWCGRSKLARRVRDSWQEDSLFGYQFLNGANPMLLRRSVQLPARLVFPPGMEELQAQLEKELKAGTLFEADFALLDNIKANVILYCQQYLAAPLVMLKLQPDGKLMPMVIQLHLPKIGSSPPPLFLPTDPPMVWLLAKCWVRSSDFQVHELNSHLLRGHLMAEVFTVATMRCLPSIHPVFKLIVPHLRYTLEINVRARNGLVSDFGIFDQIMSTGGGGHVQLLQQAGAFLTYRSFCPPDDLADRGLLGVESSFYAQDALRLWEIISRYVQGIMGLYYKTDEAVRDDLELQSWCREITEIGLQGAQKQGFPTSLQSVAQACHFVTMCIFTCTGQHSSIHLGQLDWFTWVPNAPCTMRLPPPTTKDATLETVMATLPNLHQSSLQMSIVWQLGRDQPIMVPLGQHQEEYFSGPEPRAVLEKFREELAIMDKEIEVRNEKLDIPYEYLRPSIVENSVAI
Description: as §1, §2

melting point	IC50 (human 15-LO)	IC50 [1]	inhibition at 10 µM (human 15-LO; at 10 micromolar)	SMILES
221 to 223 °C	25 nM	2 nM		COc1ccc(-c2cc3cc(F)c(F)cc3[nH]2)cc1NC(=S)Nc1cccc(C(=O)O)c1 [Example 6, 3-{3-[5-(5,6-Difluoro-1H-indol-2-yl)-2-methoxy-phenyl]-thioureido}-benzoic acid]
254 to 256 °C	19 nM	10 nM		COc1ccc(-c2cc3cc(F)c(F)cc3[nH]2)cc1NS(C)(=O)=O [Example 7, N-[5-(5,6-Difluoro-1H-indol-2-yl)-2-methoxy-phenyl]-methanesulfonamide]
168 to 170 °C	1260 nM	113 nM		COC(=O)c1ccc(CNc2cc(-c3cc4cc(F)c(F)cc4[nH]3)ccc2OC)cc1 [Example 14, 4-{[5-(5,6-Difluoro-1H-indol-2-yl)-2-methoxy-phenylamino]-methyl}-benzoic acid methyl ester]
208 to 209 °C	23 nM	113 nM		COc1ccc(-c2cc3ccccc3[nH]2)cc1N [Example 1, 5-(1H-Indol-2-yl)-2-methoxy-phenylamine]
211 to 213 °C	7 nM	40 nM		COc1ccc(-c2cc3cc(F)c(F)cc3[nH]2)cc1NS(=O)(=O)c1cccs1 [Example 9, Thiophene-2-sulfonic acid [5-(5,6-difluoro-1H-indol-2-yl)-2-methoxy-phenyl]-amide]
173 to 175 °C	414 nM	40 nM		COc1ccc(CNc2cc(-c3cc4cc(F)c(F)cc4[nH]3)ccc2OC)cc1 [Example 13, [5-(5,6-Difluoro-1H-indol-2-yl)-2-methoxy-phenyl]-(4-methoxy-benzyl)-amine]
158 to 159 °C	116 nM	74 nM		COc1ccc(-c2cc3cc(F)c(F)cc3[nH]2)cc1NCc1ccc(C#N)cc1 [Example 50, [5-(5,6-Difluoro-1H-indol-2-yl)-2-methoxy-phenyl]-(4-cyano-benzyl)-amine]
183 to 186 °C	36 nM	17 nM		COc1ccc(-c2cc3cc(F)c(F)cc3[nH]2)cc1NC(=S)Nc1ccc(F)c(F)c1 [Example 39, 1-[5-(5,6-Difluoro-1H-indol-2-yl)-2-methoxy-phenyl]-3-(3,4-difluoro-phenyl)-thiourea]
128 to 130 °C	10 nM	5 nM		COc1ccc(-c2cc3cc(F)c(F)cc3[nH]2)cc1NC(=S)Nc1cccnc1 [Example 41, 1-[5-(5,6-Difluoro-1H-indol-2-yl)-2-methoxy-phenyl]-3-pyridin-3-yl-thiourea]
228 to 230 °C	49 nM	124 nM		COc1ccc(-c2cc3cc(F)c(F)cc3[nH]2)cc1NS(=O)(=O)c1cccc([N+](=O)[O-])c1 [Example 15, N-[5-(5,6-Difluoro-1H-indol-2-yl)-2-methoxy-phenyl]-3-nitro-benzenesulfonamide]
195 to 198 °C		1390 nM	81%	COc1ccc(-c2nc3cc(Cl)c(Cl)cc3n2C(=O)OCc2ccccc2)cc1NS(=O)(=O)c1cccs1 [Example 10, 5,6-Dichloro-2-[4-methoxy-3-(thiophene-2-sulfonylamino)-phenyl]-benzoimidazole-1-carboxylic acid benzyl ester]
210 to 211 °C	53 nM	27 nM		COc1ccc(-c2cc3cc(F)c(F)cc3[nH]2)cc1N [Example 3, 5-(5,6-Difluoro-1H-indol-2-yl)-2-methoxy-phenylamine]
